Laboratory results reported in patent publication US20090209510A1, “Novel Method of Treating Hyperlipidemia” (TAKEDA PHARMACEUTICAL COMPANY LIMITED, priority 2005, published 2009).

Tests used:
Hartley guinea pigs [1] = assay: Influence of Compound X and cerivastatin on change of muscle-deviated enzymes (Example 6); type: in vivo, guinea pig; conditions: for increases in the creatinine phosphokinase and myoglobin in plasma: cerivastatin 1 mg/kg alone or with Compound X 30 mg/kg
Hartley guinea pigs [2] = assay: Lowering effect on plasma cholesterol by use in combination of Compound X and atorvastatin (Example 2); type: in vivo, guinea pig; conditions: guinea pigs on 0.05% cholesterol/10% corn oil diet, orally once a day 14 days, average ± standard error (N = 12)
Hartley guinea pigs [3] = conditions: plasma, atorvastatin 50 mg/kg alone, orally once a day 7 days, average ± standard error (N = 12)
Procedure: On the morning of the following day after the 7th administration, blood was collected, and the concentrations of the alanine aminotransferase and the aspartate aminotransferase, which are the markers of hepatic toxicity, in plasma were measured.

Hartley guinea pigs [4] = assay: Influence of Compound X and atorvastatin on liver pathological change (Example 4); type: in vivo, guinea pig; conditions: for Total cholesterol: guinea pigs on 0.05% cholesterol/10% corn oil diet, 30 mg/kg alone, orally once a day 14 days, average ± standard error (N = 12)
Procedure: Furthermore, the liver was removed and pathological evaluation was conducted.

Hartley guinea pigs [5] = assay: Lowering effect on plasma cholesterol by triple combination of Compound X, simvastatin and ezetimibe (Example 7); type: in vivo, guinea pig; conditions: guinea pigs on 0.05% cholesterol/10% corn oil diet, Compound X 30 mg/kg alone, orally once a day 14 days; average ± standard error (N = 6)
Wistar Fatty rats = assay: Lowering effect on plasma triglyceride by use in combination of Compound X and atorvastatin (Example 1); type: in vivo, rat; conditions: 30 mg/kg alone, orally once a day for 8 days, overnight fasting, average ± standard error (N = 6)
Hartley guinea pigs [6] = assay: Lowering effects on plasma cholesterol by use in combination of Compound X and simvastatin (Example 3); type: in vivo, guinea pig; conditions: guinea pigs on 0.05% cholesterol/10% corn oil diet, orally once a day 14 days, average ± standard error (N = 12)
[7] = plasma, cerivastatin 1 mg/kg alone, orally once a day 14 days, average ± standard error (N = 16)

Structure (SMILES): COCc1c(C(C)C)nc(C(C)C)c(/C=C/[C@@H](O)C[C@@H](O)CC(=O)O)c1-c1ccc(F)cc1 [Cerivastatin, cerivastatin]
- increases in the creatinine phosphokinase and myoglobin in plasma (Hartley guinea pigs [1]; 14 days): Significant increases
- TC (Hartley guinea pigs [1]; cerivastatin 1 mg/kg alone, orally once a day 14 days, average ± standard error (N = 16)): 13.2 ± 0.8 mg/dL
- CK (creatinine phosphokinase) (Hartley guinea pigs [1]; [7]): 4070 ± 800 U/L
- Mb (myoglobin) (Hartley guinea pigs [1]; [7]): 25.7 ± 2.6 ng/mL

Structure (SMILES): CC(C)c1c(C(=O)Nc2ccccc2)c(-c2ccccc2)c(-c2ccc(F)cc2)n1CC[C@@H](O)C[C@@H](O)CC(=O)O [Atorvastatin, atorvastatin]
- Total cholesterol level (Hartley guinea pigs [2]; 3 mg/kg alone): 46.1 ± 3.3 mg/dL
- Total cholesterol level (Hartley guinea pigs [2]; 10 mg/kg alone): 37.4 ± 4.1 mg/dL
- Total cholesterol level (Hartley guinea pigs [2]; 30 mg/kg alone): 33.5 ± 2.8 mg/dL
- Alanine aminotransferase (Hartley guinea pigs [3]): 48.9 ± 9.7 I.U./L
- Aspartate aminotransferase (Hartley guinea pigs [3]): 169.0 ± 39.1 I.U./L
- Total cholesterol (Hartley guinea pigs [4]): 32.9 ± 1.5 mg/dL

Structure (SMILES): COc1cccc([C@H]2O[C@H](CC(=O)N3CCC(CC(=O)O)CC3)C(=O)N(CC(C)(C)COC(C)=O)c3ccc(Cl)cc32)c1OC [Compound X, N-[[(3R,5S)-1-(3-acetoxy-2,2-dimethylpropyl)-7-chloro-5-(2,3-dimethoxyphenyl)-2-oxo-1,2,3,5-tetrahydro-4,1-benzoxazepin-3-yl]acetyl]piperidine-4-acetic acid]
- cholesterol-lowering effect (Hartley guinea pigs [1]; Compound X 30 mg/kg added to cerivastatin 1 mg/kg, 14 days): slightly increasing
- increases in the creatinine phosphokinase and myoglobin in plasma (Hartley guinea pigs [1]; 14 days): significantly ameliorated the increases
- Total cholesterol level (Hartley guinea pigs [2]; 30 mg/kg alone): 44.4 ± 4.1 mg/dL
- Total cholesterol level (Hartley guinea pigs [5]): 43.5 ± 4.1 mg/dL
- Plasma triglyceride value (Wistar Fatty rats): 376.5 ± 22.0 mg/dL
- Total cholesterol (Hartley guinea pigs [4]): 40.1 ± 3.1 mg/dL
- Image of the liver cell necrosis (Hartley guinea pigs [4]; guinea pigs, each drug 30 mg/kg, alone or in combination, 14 days): not recognized
- Total cholesterol level (Hartley guinea pigs [6]; 30 mg/kg alone): 40.2 ± 4.7 mg/dL

Structure (SMILES): CCC(C)(C)C(=O)O[C@H]1C[C@@H](C)C=C2C=C[C@H](C)[C@H](CC[C@@H]3C[C@@H](O)CC(=O)O3)[C@H]21 [Simvastatin, simvastatin]
- Total cholesterol level (Hartley guinea pigs [6]; 10 mg/kg alone): 41.0 ± 3.6 mg/dL
- Total cholesterol level (Hartley guinea pigs [6]; 30 mg/kg alone): 43.4 ± 2.2 mg/dL
- Total cholesterol level (Hartley guinea pigs [6]; 100 mg/kg alone): 31.7 ± 2.6 mg/dL
